Consider one compound from patent publication US20240099973A1, “EXTRACELLULAR VESICLE COMPOSITIONS” (LONZA SALES AG, priority 2019, published 2024).

One series relates to IFNβ mRNA. In words: IFNβ mRNA expression in liver after intravenous administration. It counts as in vivo, C57BL/6 mice. To be noted: 20 μg intravenously; 4 hours. The method, then:
The effect of administration of exosomes containing STING agonist CL656 on gene expression in C57BL/6 liver was investigated.
After thawing, exosomes in buffer B composition containing STING agonist CL656 was stored at 4° C. and 22° C. for 24 h or 72 h as described in Example 5. PBS, CL656 (20 μg), exosomes, or exosomes in buffer B containing STING agonist CL656 that incubated as described above (600 ng of CL656 per mouse) were administered into C57BL/6 mice intravenously. As a control, exosomes in buffer B composition containing STING agonist CL656 that were stored at −80° C. (6 ng, 60 ng, and 600 ng per mouse) were administered (considered as 0 h). After 4 hours, mice were euthanized and liver was collected. Total RNA was isolated from liver by using RNeasy Lipid Mini Kit (Qiagen) and expression level of IFNβ mRNA was determined by RT-qPCR. Relative expression was normalized against housekeeping gene RPS13. FIG. 3C provides the results from the liver study.

A short description of series [1]: Intratumoral concentration of STING agonist in B16-F10 melanoma tumors. It counts as in vivo, C57BL/6 mice. To be noted: 0.3 μg of CL656 intratumoral dose; after about 360 minutes. As to the method:
The intratumoral concentration of STING agonist in Buffer B over time was investigated.
Briefly, B16-F10 melanoma cells were subcutaneously transplanted into C57BL/6 mice. When dermal tumors were visible, each animal received an intratumoral dose of either free STING agonist (0.3 μg of CL656) or exosome-encapsulated STING agonist (0.3 μg of CL656). Intratumoral concentration of free STING agonist and exosome-encapsulated STING agonist was measured at 5, 30, 120, 360, 1440, and 2880 minutes after injection. […] Further shown in FIG. 3D, the concentration of exosome-encapsulated STING agonist fell slowly to about 100 nM at 1440 minutes. Thereafter, the concentration of exosome-encapsulated STING agonist was steady at about 100 nM until the last measurement was taken at 2880 minutes.

For the compound `Nc1ncnc2c1ncn2[C@@H]1O[C@@H]2COP(=O)(S)O[C@H]3[C@@H](F)[C@H](n4cnc5c(=O)[nH]cnc54)O[C@@H]3COP(O)(=S)O[C@H]2[C@H]1F` (some centres unmarked) [CL656], the “IFNβ mRNA in liver (RT-qPCR, normalized against RPS13)” value with IFNβ mRNA is “low level”. Further, the intratumoral concentration result in series [1] is “not detectable”.
